Drawing on patent US20180037568A1, “MODULATORS OF METHYL MODIFYING ENZYMES, COMPOSITIONS AND USES THEREOF” (Constellation Pharmaceuticals, Inc., priority 2015, published 2018), this text covers IC50 and EC50 for one molecule.

A value given as a limit tells only on which side of the number the result lay.

One test concerns the target T1, PRC2 containing wt EZH2 (Homo sapiens, UniProt Q15910).
T1 construct: made in house
As to the kind of experiment: EZH2 pep BSA Brij 4.0 LowE (IC50): 3H-SAM incorporation into biotinylated H3 peptide. The test is classed as biochemical. The following applies: read-out: EZH2 pep BSA Brij 4.0 LowE (IC50); 20 pM PRC2 wt EZH2, 0.9 μM 3H-SAM, biotinylated H3 peptide substrate, 2 μM H3K27me3 activating peptide. A digest of the protocol:
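PRC2 (wt EZH2, 20 pM) pre-incubated 120 min with compound, 0.9 μM 3H-SAM and 2 μM H3K27me3 activating peptide in pH 8.5 Tris/DTT/Brij-35/0.1% BSA, 0.8% DMSO. Biotinylated H3K27me1 peptide added (2 μM stock), 5 h at room temperature, EDTA/SAH quench, streptavidin Flashplate capture. IC50 from four-parameter fit versus full-activity and no-enzyme controls.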

For another test, the system named is H3K27me3 mark. Kind of test: H3K27me3 Alpha Hela Assay (AlphaLISA). The test is classed as cell-based. The following applies: Hela cells, 72 hrs; read-out: EZH2 Cell H3K27me3 Alpha HeLa (EC50 K27me3). An outline of the steps:
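HeLa cells at 1,000/well were treated with ten 3-fold compound doses for 72 h at 37 °C. After lysis and histone extraction, H3K27me3 was detected by AlphaLISA with anti-K27me3 acceptor beads, biotinylated anti-H3 (C-ter) antibody (3 nM final) and streptavidin donor beads (20 μg/mL final). Signals were normalized to DMSO and curve-fitted for EC50.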
For orientation: Bead proximity is the source of the signal in Alpha formats.

For the next test, the target named is EZH2 (Homo sapiens, UniProt Q15910). As to the kind of experiment: EZH2 nuc BSA Brij 1.5 (IC50): rPRC2, biotinylated oligonucleosome substrate, 3H SAM FlashPlate. In kind it is biochemical. To be noted: EZH2 nuc BSA Brij 1.5 (IC50), 2 nM EZH2, 0.2 μM biotinylated oligonucleosomes, 0.2 μM 3H SAM, 3.6 μM H3K27me3 peptide. As to the method:
EZH2 Nuc BSA Brij 1.5 (IC50):
Assays were carried out by mixing rPRC2 together with biotinylated oligonucleosome substrates in the presence of the radio-labeled enzyme co-factor, S-adenosyl-L-methionine (^3H SAM) (Perkin Elmer) and monitoring the enzymatically mediated transfer of tritiated methyl groups from ^3H SAM to histone lysine residues. The amount of resulting tritiated methyl histone product was measured by first capturing the biotinylated oligonucleosomes in streptavidin (SAV) coated FlashPlates (Perkin Elmer), followed by a wash step to remove un-reacted ^3H SAM, and then counting on a TopCount NXT 384 well plate scintillation counter (Perkin Elmer). The final assay conditions for EZH2 were as follows: 50 mM Tris Buffer pH 8.5, 1 mM DTT, 69 μM Brij-35 detergent, 5.0 mM MgCl2, 0.1 mg/mL BSA, 0.2 μM ^3H SAM, 0.2 μM biotinylated oligonucleosomes, 3.6 μM H3K27me3 peptide and 2 nM EZH2.
Compound IC50 Measurements were Obtained as Follows:
Compounds were first dissolved in 100% DMSO as 10 mM stock solutions. Ten point dose response curves were generated by dispensing varying amounts of the 10 mM compound solution in 10 wells of the 384 well plate (Echo; Labcyte), pure DMSO was then used to backfill the wells to insure all wells have the same amount of DMSO. A 12.5 μL volume of the HMT enzyme, H3K27me3 peptide and oligonucleosome substrate in assay buffer was added to each well of the assay plate using a Multidrop Combi (ThermoFisher). Compounds were pre-incubated with the enzyme for 20 min, followed by initiation of the methyltransferase reaction by addition of 12.5 μL of ^3H SAM in assay buffer (final volume=25 μL). The final concentrations of compounds ranged from a top default concentration of 80 μM down to 0.16 μM in ten 2-fold dilution steps. Reactions were carried out for 60 minutes and quenched with 20 μL per well of 1.96 mM SAH, 50 mM Tris pH 8.5, 200 mM EDTA. Stopped reactions were transferred to SAV coated Flashplates (Perkin Elmer), incubated for 120 min, washed with a plate washer, and then read on the TopCount NXT (1.0 min/well) to measure the amount of methyl histone product formed during the reaction. The amount of methyl histone product was compared with the amount of product formed in the 0% and 100% inhibition control wells allowing the calculation of % Inhibition in the presence of the individual compounds at various concentrations. IC50's were computed using a 4 parameter fit non-linear curve fitting software package (XLFIT, part of the database package, ActivityBase (IDBS)) where the four parameters were IC50, Hill slope, pre-transitional baseline (0% INH), and post-transitional baseline (100% INH); with the latter two parameters being fixed to zero and 100%, respectively, by default.

T1 sequence (Q15910 whole entry): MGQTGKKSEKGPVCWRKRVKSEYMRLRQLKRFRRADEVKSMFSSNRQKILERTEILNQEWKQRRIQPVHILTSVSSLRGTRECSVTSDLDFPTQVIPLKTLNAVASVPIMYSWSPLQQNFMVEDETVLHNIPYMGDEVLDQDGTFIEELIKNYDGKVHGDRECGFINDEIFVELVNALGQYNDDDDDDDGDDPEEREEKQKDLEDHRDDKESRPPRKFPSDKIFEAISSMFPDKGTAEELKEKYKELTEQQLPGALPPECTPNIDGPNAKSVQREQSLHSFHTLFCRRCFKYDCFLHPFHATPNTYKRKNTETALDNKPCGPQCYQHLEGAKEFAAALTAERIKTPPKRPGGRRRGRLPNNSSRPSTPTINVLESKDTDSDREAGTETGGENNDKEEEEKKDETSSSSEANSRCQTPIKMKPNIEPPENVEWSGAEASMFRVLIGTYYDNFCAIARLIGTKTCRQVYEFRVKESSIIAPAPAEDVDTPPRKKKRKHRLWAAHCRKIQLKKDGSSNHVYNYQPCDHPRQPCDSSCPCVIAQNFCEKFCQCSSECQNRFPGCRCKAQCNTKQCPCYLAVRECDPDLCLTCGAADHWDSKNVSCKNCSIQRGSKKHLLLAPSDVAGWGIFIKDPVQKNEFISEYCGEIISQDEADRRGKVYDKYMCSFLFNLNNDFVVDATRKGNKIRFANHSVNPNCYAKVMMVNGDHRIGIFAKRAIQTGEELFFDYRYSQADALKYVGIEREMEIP
T1 sequence (O75530 whole entry partner): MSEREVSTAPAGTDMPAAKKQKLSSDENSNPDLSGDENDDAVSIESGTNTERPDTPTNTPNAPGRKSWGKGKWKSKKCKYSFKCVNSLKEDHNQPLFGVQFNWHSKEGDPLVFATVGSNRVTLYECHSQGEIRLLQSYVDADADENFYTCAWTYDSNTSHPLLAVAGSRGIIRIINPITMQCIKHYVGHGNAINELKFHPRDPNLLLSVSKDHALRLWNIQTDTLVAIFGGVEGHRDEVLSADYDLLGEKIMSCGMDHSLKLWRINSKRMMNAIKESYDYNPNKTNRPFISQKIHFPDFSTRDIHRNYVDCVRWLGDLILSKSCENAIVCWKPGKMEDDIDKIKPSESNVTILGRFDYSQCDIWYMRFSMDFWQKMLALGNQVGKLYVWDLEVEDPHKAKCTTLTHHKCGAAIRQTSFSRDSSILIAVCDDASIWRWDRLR
T1 sequence (Q15022 whole entry partner): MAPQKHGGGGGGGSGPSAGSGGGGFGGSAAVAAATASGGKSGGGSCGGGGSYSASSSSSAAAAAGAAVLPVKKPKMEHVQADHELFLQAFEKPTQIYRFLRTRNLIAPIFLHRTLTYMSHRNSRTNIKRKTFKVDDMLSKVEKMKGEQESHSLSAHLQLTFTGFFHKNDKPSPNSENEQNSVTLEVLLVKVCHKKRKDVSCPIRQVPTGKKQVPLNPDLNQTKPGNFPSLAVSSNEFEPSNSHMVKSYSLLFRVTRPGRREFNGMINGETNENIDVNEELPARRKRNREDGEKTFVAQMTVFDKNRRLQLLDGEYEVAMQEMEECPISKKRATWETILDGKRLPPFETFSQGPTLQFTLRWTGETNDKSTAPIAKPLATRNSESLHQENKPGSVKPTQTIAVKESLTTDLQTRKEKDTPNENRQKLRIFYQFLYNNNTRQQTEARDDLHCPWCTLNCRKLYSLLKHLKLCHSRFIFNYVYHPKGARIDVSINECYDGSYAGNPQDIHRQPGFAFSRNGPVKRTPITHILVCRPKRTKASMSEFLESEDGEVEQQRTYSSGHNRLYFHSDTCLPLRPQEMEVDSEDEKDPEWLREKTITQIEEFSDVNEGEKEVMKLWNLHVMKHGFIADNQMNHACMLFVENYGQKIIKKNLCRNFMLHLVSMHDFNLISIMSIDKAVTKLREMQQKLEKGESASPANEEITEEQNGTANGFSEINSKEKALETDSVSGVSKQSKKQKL
T1 sequence (Q09028 whole entry partner): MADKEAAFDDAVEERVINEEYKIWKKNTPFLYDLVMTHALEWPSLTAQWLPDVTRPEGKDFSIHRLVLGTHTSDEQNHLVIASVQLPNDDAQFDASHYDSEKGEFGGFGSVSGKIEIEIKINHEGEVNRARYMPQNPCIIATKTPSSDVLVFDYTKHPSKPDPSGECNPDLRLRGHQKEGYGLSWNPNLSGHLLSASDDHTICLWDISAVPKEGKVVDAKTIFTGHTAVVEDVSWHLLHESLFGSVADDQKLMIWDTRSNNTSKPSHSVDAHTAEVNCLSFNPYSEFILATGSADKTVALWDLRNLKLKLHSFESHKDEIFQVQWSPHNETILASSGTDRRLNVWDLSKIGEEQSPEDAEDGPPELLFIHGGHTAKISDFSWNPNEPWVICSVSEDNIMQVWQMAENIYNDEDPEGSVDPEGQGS
T1 sequence (Q6ZN18 whole entry partner): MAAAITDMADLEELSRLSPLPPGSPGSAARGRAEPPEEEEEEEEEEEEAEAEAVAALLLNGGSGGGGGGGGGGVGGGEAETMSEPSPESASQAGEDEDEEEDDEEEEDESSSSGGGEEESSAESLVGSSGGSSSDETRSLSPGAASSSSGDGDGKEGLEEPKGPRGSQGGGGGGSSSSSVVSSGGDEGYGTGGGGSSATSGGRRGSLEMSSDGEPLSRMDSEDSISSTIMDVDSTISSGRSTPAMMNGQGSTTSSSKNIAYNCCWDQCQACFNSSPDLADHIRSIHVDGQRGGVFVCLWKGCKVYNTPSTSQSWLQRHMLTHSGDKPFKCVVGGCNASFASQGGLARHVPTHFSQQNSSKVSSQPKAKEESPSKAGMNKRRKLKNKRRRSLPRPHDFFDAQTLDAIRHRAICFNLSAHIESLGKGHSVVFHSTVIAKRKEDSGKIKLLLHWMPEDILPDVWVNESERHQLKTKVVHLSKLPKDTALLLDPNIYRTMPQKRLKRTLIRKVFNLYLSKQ
Chain of EZH2 (Q15910 whole entry): as the sequence (Q15910 whole entry) above
Chain of EZH2 (O75530 whole entry partner): as the sequence (O75530 whole entry partner) above
Chain of EZH2 (Q15022 whole entry partner): as the sequence (Q15022 whole entry partner) above

In general, IC50 refers to the concentration at which inhibition is half-maximal. What is called EC50 is the concentration at which the effect is half-maximal. Turning to `COc1cc(C)[nH]c(=O)c1CNC(=O)c1c(C)n(C(C)C2CCNC(C(F)(F)F)C2)c2ccccc12` (single isomer, unassigned) [Compound 18, N-((4-methoxy-6-methyl-2-oxo-1,2-dihydropyridin-3-yl)methyl)-2-methyl-1-(1-(2-(trifluoromethyl)piperidin-4-yl)ethyl)-1H-indole-3-carboxamide], the IC50 at PRC2 containing wt EZH2 and at EZH2 was less than 100 nM in each case. Moreover, the EC50 with H3K27me3 mark is less than 400 nM.
